ChEMBL document CHEMBL1201862, “PubChem BioAssay data set” (2004)
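These data come from cells grown in 96-well plates and exposed to compound for 48 hours at five concentrations. GI50 = concentration required for 50% inhibition of growth.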 Activity calls are given as the source filed them. Cut-off read from the data, not from the text of the source: active = GI50 up to about 1.1 µM and inactive = higher.

How the values were obtained:
Assay in all cases: NCI-60 cell line screen, 48 h
OVCAR-8 = test system: OVCAR-8
COLO 205 = test system: COLO 205
U-251 = test system: U-251
UO-31 = test system: UO-31
DU-145 = test system: DU-145
MCF7 = test system: MCF7
CAKI-1 = test system: CAKI-1
SK-MEL-2 = test system: SK-MEL-2
SF-268 = test system: SF-268
ACHN = test system: ACHN
SW-620 = test system: SW-620
NCI-H23 = test system: NCI-H23
SNB-75 = test system: SNB-75
NCI-H460 = test system: NCI-H460
DLD-1 = test system: DLD-1
Malme-3M = test system: Malme-3M
SF-539 = test system: SF-539
HOP-62 = test system: HOP-62
T47D = test system: T47D
MDA-MB-435 = test system: MDA-MB-435

Measured: GI50

COC(=O)c1ccccc1OCc1cc(=O)oc2ccc(C)cc12
inactive: OVCAR-8 39.3 µM | COLO 205 > 100 µM | U-251 14.4 µM | UO-31 > 100 µM | DU-145 > 100 µM | MCF7 21.4 µM | CAKI-1 52.5 µM | SK-MEL-2 > 42.6 µM | SF-268 29.1 µM | ACHN 63.2 µM | SW-620 > 65.8 µM | NCI-H23 > 100 µM | SNB-75 16.2 µM | NCI-H460 > 100 µM | DLD-1 67.1 µM | Malme-3M > 100 µM | SF-539 20.2 µM | HOP-62 20 µM | T47D 4.7 µM | MDA-MB-435 > 100 µM

CCC(=O)N/N=C(\C=C\c1cccc(O)c1)c1sc(Nc2ccc(C)cc2[N+](=O)[O-])nc1C
inactive: OVCAR-8 71.3 µM | COLO 205 > 100 µM | U-251 > 100 µM | UO-31 > 100 µM | CAKI-1 > 100 µM | SK-MEL-2 > 100 µM | SF-268 > 100 µM | ACHN > 100 µM | SW-620 > 100 µM | NCI-H23 2.22 µM | SNB-75 14.9 µM | NCI-H460 > 100 µM | DLD-1 43.6 µM | Malme-3M > 100 µM | SF-539 32.7 µM | HOP-62 > 100 µM

COc1ccccc1/C=C1\CCC(CN(C)C)C1=O (centres undefined)
inactive: OVCAR-8 5.78 µM | COLO 205 2.25 µM | U-251 11.1 µM | UO-31 7.74 µM | DU-145 11.8 µM | MCF7 2.12 µM | CAKI-1 5.6 µM | SK-MEL-2 8.51 µM | SF-268 10.6 µM | ACHN 8.02 µM | SW-620 2.58 µM | NCI-H23 10.8 µM | SNB-75 8.49 µM | NCI-H460 19.6 µM | DLD-1 2.2 µM | Malme-3M 6.19 µM | SF-539 7.41 µM | HOP-62 19.5 µM | T47D 3.58 µM | MDA-MB-435 8.83 µM

CCOc1ccc(/N=C(/NC(=O)c2ccccc2)SC)cc1
inactive: OVCAR-8 > 100 µM | COLO 205 > 100 µM | U-251 > 100 µM | UO-31 > 100 µM | CAKI-1 > 100 µM | SK-MEL-2 > 100 µM | SF-268 > 100 µM | ACHN > 100 µM | SW-620 43.4 µM | NCI-H23 > 100 µM | SNB-75 > 100 µM | NCI-H460 > 100 µM | DLD-1 > 100 µM | Malme-3M > 100 µM | SF-539 > 100 µM | HOP-62 > 100 µM

Oc1cc(C2OCCCO2)cc(O)c1O
inactive: OVCAR-8 > 100 µM | COLO 205 > 100 µM | U-251 > 100 µM | UO-31 > 100 µM | CAKI-1 > 100 µM | SK-MEL-2 > 100 µM | SF-268 > 100 µM | ACHN > 100 µM | SW-620 > 100 µM | NCI-H23 > 100 µM | SNB-75 > 100 µM | NCI-H460 > 100 µM | DLD-1 > 100 µM | Malme-3M > 100 µM | SF-539 > 100 µM | HOP-62 > 100 µM

O=c1cnn2c(n1)sc1ccc3ccccc3c12
inactive: OVCAR-8 > 100 µM | COLO 205 > 100 µM | U-251 > 100 µM | UO-31 > 100 µM | CAKI-1 > 100 µM | SK-MEL-2 > 100 µM | SF-268 > 100 µM | ACHN > 100 µM | SW-620 > 100 µM | NCI-H23 > 100 µM | SNB-75 > 100 µM | NCI-H460 61.2 µM | DLD-1 > 100 µM | Malme-3M > 100 µM | SF-539 > 100 µM | HOP-62 98.9 µM

Oc1cc(-c2ccccc2)c2ccccc2n1
inactive: OVCAR-8 > 100 µM | COLO 205 > 100 µM | U-251 69.5 µM | UO-31 15.1 µM | CAKI-1 13.4 µM | SK-MEL-2 72.1 µM | SF-268 52.6 µM | ACHN 33.4 µM | SW-620 > 100 µM | NCI-H23 84.7 µM | SNB-75 13 µM | NCI-H460 41.9 µM | DLD-1 56 µM | Malme-3M 24.9 µM | SF-539 52.7 µM | HOP-62 28.2 µM

CCOC(=O)NN(C(=O)OCC)C(C(=O)c1ccc(Cl)cc1)=C1NCCN1
inactive: OVCAR-8 > 100 µM | COLO 205 > 100 µM | U-251 > 100 µM | UO-31 > 100 µM | CAKI-1 > 100 µM | SK-MEL-2 > 100 µM | SF-268 > 100 µM | ACHN > 100 µM | SW-620 > 100 µM | NCI-H23 > 100 µM | SNB-75 52.4 µM | NCI-H460 > 100 µM | DLD-1 > 100 µM | Malme-3M > 100 µM | SF-539 > 100 µM | HOP-62 > 100 µM

COc1cc(/C=C\c2ccccn2)cc(OC)c1OC
inactive: OVCAR-8 > 100 µM | COLO 205 66.1 µM | U-251 > 100 µM | UO-31 56.9 µM | CAKI-1 > 100 µM | SF-268 > 100 µM | ACHN > 100 µM | SW-620 41.8 µM | NCI-H23 > 100 µM | SNB-75 47.3 µM | NCI-H460 > 100 µM | DLD-1 > 100 µM | Malme-3M > 100 µM | SF-539 > 100 µM | HOP-62 79.4 µM

O=C(NC1C=Nc2ccccc2NC1=O)c1ccccc1Cl (centres undefined)
inactive: OVCAR-8 43 µM | COLO 205 22.7 µM | U-251 28.8 µM | UO-31 24.9 µM | CAKI-1 46.8 µM | SK-MEL-2 36.9 µM | SF-268 51.9 µM | ACHN 39.6 µM | SW-620 13.6 µM | NCI-H23 43.9 µM | SNB-75 50 µM | NCI-H460 44 µM | DLD-1 59.2 µM | Malme-3M 58.1 µM | SF-539 > 100 µM | HOP-62 > 100 µM

O=C(O)c1ccc(S(=O)(=O)c2ccccc2)c([N+](=O)[O-])c1
inactive: COLO 205 > 100 µM | U-251 > 100 µM | UO-31 > 100 µM | CAKI-1 > 100 µM | SK-MEL-2 > 100 µM | SF-268 > 100 µM | ACHN > 100 µM | SW-620 > 100 µM | NCI-H23 > 100 µM | SNB-75 > 100 µM | NCI-H460 > 100 µM | DLD-1 > 100 µM | Malme-3M > 100 µM | SF-539 > 100 µM | HOP-62 > 100 µM

CCOC(=O)NC(=O)c1cn(-c2ccc(CCOC(=O)NCCCCCCNC(=O)OCCc3ccc(-n4c(=O)[nH]cc(C(=O)NC(=O)OCC)c4=O)cc3)cc2)c(=O)[nH]c1=O
inactive: OVCAR-8 40.6 µM | COLO 205 > 100 µM | U-251 33.2 µM | UO-31 > 65.8 µM | CAKI-1 > 100 µM | SK-MEL-2 > 100 µM | SF-268 > 49 µM | ACHN 29.4 µM | SW-620 > 100 µM | NCI-H23 49.4 µM | SNB-75 27.5 µM | NCI-H460 28.8 µM | DLD-1 > 100 µM | Malme-3M 50 µM | SF-539 23.7 µM | HOP-62 37.6 µM

CCOC(=O)C1=C(Nc2ccc(Br)cc2)OC/C1=N\NC(=O)c1ccccc1O
inactive: OVCAR-8 13.1 µM | COLO 205 38.9 µM | U-251 9.23 µM | UO-31 9.71 µM | CAKI-1 6.49 µM | SK-MEL-2 15.1 µM | SF-268 12 µM | ACHN 5.13 µM | SW-620 23 µM | NCI-H23 6.52 µM | NCI-H460 12.9 µM | DLD-1 18 µM | Malme-3M 35.4 µM | SF-539 11.2 µM | HOP-62 11.2 µM

C#CCN(C(=O)C(F)(F)F)c1ccc(C(=O)c2ccc(N(CC#C)C(=O)C(F)(F)F)cc2)cc1
inactive: OVCAR-8 36.1 µM | COLO 205 30.8 µM | U-251 31.6 µM | UO-31 59.7 µM | SK-MEL-2 33.7 µM | SF-268 38.4 µM | ACHN 32.7 µM | SW-620 > 100 µM | NCI-H23 23.2 µM | SNB-75 43.4 µM | NCI-H460 33.8 µM | DLD-1 37.6 µM | Malme-3M 32.6 µM | SF-539 37.8 µM | HOP-62 48.2 µM

CCCCCCCCCCCCC(CCCCCCCCCCCC)OP(=O)(O)O
inactive: OVCAR-8 > 100 µM | COLO 205 > 100 µM | U-251 34 µM | UO-31 55.6 µM | CAKI-1 > 100 µM | SK-MEL-2 65.2 µM | SF-268 > 100 µM | ACHN 76.2 µM | SW-620 > 100 µM | NCI-H23 > 100 µM | SNB-75 43.4 µM | NCI-H460 > 100 µM | DLD-1 > 100 µM | Malme-3M > 100 µM | SF-539 46.2 µM | HOP-62 > 100 µM

COC(=O)C1C=CCC2CCCCC21N1CCCC1 (centres undefined)
inactive: OVCAR-8 59.4 µM | COLO 205 40.9 µM | U-251 40.4 µM | UO-31 > 100 µM | CAKI-1 > 100 µM | SF-268 63.5 µM | ACHN > 100 µM | SW-620 83.6 µM | SNB-75 44 µM | NCI-H460 55.2 µM | DLD-1 > 100 µM | Malme-3M > 100 µM | SF-539 > 100 µM | HOP-62 > 100 µM

O=[N+]([O-])c1ccc(/C=N/C2CCCCC2)cc1
inactive: OVCAR-8 > 100 µM | COLO 205 > 100 µM | U-251 > 100 µM | UO-31 > 100 µM | CAKI-1 > 100 µM | SK-MEL-2 > 100 µM | SF-268 > 100 µM | ACHN > 100 µM | SW-620 > 100 µM | NCI-H23 > 100 µM | SNB-75 > 100 µM | NCI-H460 > 100 µM | DLD-1 > 100 µM | Malme-3M > 100 µM | SF-539 > 100 µM | HOP-62 > 100 µM
